Assay results: patent US12359242B2, “Chemical platform assisted proximity capture (CAP-C)” (The University of Chicago, priority 2018, dated 2025)

Tested on: mouse embryonic stem cells (mESCs)
Test: CAP-C with G5 dendrimers on mESC samples treated with transcription elongation inhibitors
Type: cell-based
Details: for peaks originally called in the control sample that remained: second time point; for contacts in 10 kb resolution contact matrix: mESC; for contact probability between distance-scaled bins 2-7, loop and non-loop domains: versus G5-control
Description: The inventors then diffuse dendrimers into the cell nucleus and expose these cells to UV irradiation (FIG. 1A). The formaldehyde fixing is then reversed, and DNA-bound proteins are removed with protease to expose all DNA motifs, the dendrimer-DNA complexes are subsequently purified with ethanol precipitation. The purified dendrimer-DNA complexes are then subjected to MboI restriction digestion and end-filling with biotin-bearing DNA, followed by ligation under ultra-diluted solution, biotin capture and high-throughput sequencing (FIG. 1A). Dendrimers with a defined size were used for each CAP-C experiment.
Inhibition of transcription reduces supercoiling and leads to global loss of chromatin contacts. Chromatin topology highly associates with supercoiling, and supercoiling domains have been proposed and identified. […] Motivated by a relationship between transcription-induced supercoiling and domain organization, the inventors next examined whether transcription inhibition affects chromatin architecture. The inventors explored two different transcription elongation inhibitors, flavopiridol and α-amanitin. Reduced levels and rates of supercoiling have been observed upon transcription inhibition. Thus, the inventors performed time-series CAP-C experiments using G5 dendrimers to crosslink mESC samples treated with 2 μM flavopiridol for 1 h and 6 h, as well as samples treated with 4 μg/ml of α-amanitin for 6 h and 12 h, respectively.
The signals of these peaks were, however, weakly attenuated (FIG. 5A). Because these inhibitor-treated and G5-control samples are low-resolution contact maps, the inventors applied Aggregate Peak Analysis (APA) of the peaks called in the deep sequenced CAP-C dataset. […] The inventors plotted the mean contact maps of 103-263 loop-domains (median length: 170 Kb) shared between the control and inhibitor-treated samples by rescaling them into 10 bins (i.e. contact domains in G5-control overlapping loops that are shared between control and inhibitor-treated samples). […] The inventors also quantified these maps into a contact probability vs distance-scaled bins line-plot for all loop domains, non-loop domains and randomly permutated domains. […] Increasing contact frequencies identified at corners of inhibitor-treated loop-domains (bins 8-10) indicate the presence as well as attenuation of peaks from G5-control (FIG. 5E). This is in stark contrast to the absence of such an increase in non-loop domains and randomly permutated domain boundaries.

Row | Compound | peaks originally called in the control sample that remained (6 hr treatment) | loops (APA and meta-analysis) (flavopiridol-treated samples) | contacts in 10 kb resolution contact matrix (2 μM flavopiridol for 1 h and 6 h) | contacts over 1 Mb (relative contact frequency vs distance) (transcription inhibitor-treated vs control) | contact probability between distance-scaled bins 2-7, loop and non-loop domains | APA scores versus control (6 h and 12 h treated samples) | peaks originally called in the control sample that remained (12 hr treatment) | contacts in 10 kb resolution contact matrix (4 μg/ml α-amanitin for 6 h and 12 h)
1 | CN1CC[C@H](c2c(O)cc(O)c3c(=O)cc(-c4ccccc4Cl)oc23)[C@H](O)C1 [flavopiridol] | more than half | attenuated but preserved | profound decrease in contacts | slightly strong depletion | same trends |  |  | 
2 | CC[C@H](C)[C@@H]1NC(=O)CNC(=O)[C@@H]2Cc3c([nH]c4cc(O)ccc34)[S+]([O-])C[C@@H](NC(=O)CNC1=O)C(=O)N[C@@H](CC(N)=O)C(=O)N1C[C@H](O)C[C@H]1C(=O)N[C@@H]([C@@H](C)[C@@H](O)CO)C(=O)N2 (stereo in doubt) [α-amanitin] |  |  |  |  | general decrease | greater | more than half | profound decrease in contacts
